The supplement of paper PMC10307832

How the values were obtained:
Experiment in all cases: relative viability (nuclei count vs DMSO), 5 days (fraction); higher = more cells survive
Vismodegib + Alpelisib = compound: CS(=O)(=O)c1ccc(C(=O)Nc2ccc(Cl)c(-c3ccccn3)c2)c(Cl)c1 [Vismodegib] + Cc1nc(NC(=O)N2CCC[C@H]2C(N)=O)sc1-c1ccnc(C(C)(C)C(F)(F)F)c1 [Alpelisib] (partner 2 µM)
In short: (§1)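 Relative viability divides the nuclei count in treated wells by that in vehicle wells. Lung cancer cell lines were seeded in 1536-well plates, dosed by pin tool the next day, and fixed and stained after 5 days in one step with final 0.05% Triton X-100, 1% formaldehyde and 1 ug/ml Hoechst. Dosing was a single drug or a fixed anchor-drug dose plus five library-drug doses (not always all listed) in √10 steps, and values are medians of duplicate plates imaged at 4×.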

Vismodegib + Trametinib = compound: CS(=O)(=O)c1ccc(C(=O)Nc2ccc(Cl)c(-c3ccccn3)c2)c(Cl)c1 [Vismodegib] + CC(=O)Nc1cccc(-n2c(=O)n(C3CC3)c(=O)c3c(Nc4ccc(I)cc4F)n(C)c(=O)c(C)c32)c1 [Trametinib] (partner 0.02 µM)
In short: as §1

VE-821 + Palbociclib = compound: CS(=O)(=O)c1ccc(-c2cnc(N)c(C(=O)Nc3ccccc3)n2)cc1 [VE-821] + CC(=O)c1c(C)c2cnc(Nc3ccc(N4CCNCC4)cn3)nc2n(C2CCCC2)c1=O [Palbociclib] (partner 0.5 µM)
In short: as §1

Ruxolitinib + Luminespib = compound: N#CC[C@H](C1CCCC1)n1cc(-c2ncnc3[nH]ccc23)cn1 [Ruxolitinib] + CCNC(=O)c1noc(-c2cc(C(C)C)c(O)cc2O)c1-c1ccc(CN2CCOCC2)cc1 [Luminespib] (partner 0.01 µM)
In short: as §1

| Cell Line | relative viability (Vismodegib + Alpelisib; first compound 0.08 µM) | relative viability (Vismodegib + Alpelisib; first compound 0.253 µM) | relative viability (Vismodegib + Alpelisib; first compound 0.8 µM) | relative viability (Vismodegib + Alpelisib; first compound 2.53 µM) | relative viability (Vismodegib + Alpelisib; first compound 8 µM) | relative viability (Vismodegib + Trametinib; first compound 0.08 µM) | relative viability (Vismodegib + Trametinib; first compound 0.253 µM) | relative viability (Vismodegib + Trametinib; first compound 0.8 µM) | relative viability (Vismodegib + Trametinib; first compound 2.53 µM) | relative viability (Vismodegib + Trametinib; first compound 8 µM) | relative viability (VE-821 + Palbociclib; first compound 0.08 µM) | relative viability (VE-821 + Palbociclib; first compound 0.253 µM) | relative viability (VE-821 + Palbociclib; first compound 0.8 µM) | relative viability (VE-821 + Palbociclib; first compound 2.53 µM) | relative viability (VE-821 + Palbociclib; first compound 8 µM) | relative viability (Ruxolitinib + Luminespib; first compound 0.08 µM) | relative viability (Ruxolitinib + Luminespib; first compound 0.253 µM) | relative viability (Ruxolitinib + Luminespib; first compound 0.8 µM) | relative viability (Ruxolitinib + Luminespib; first compound 2.53 µM) | relative viability (Ruxolitinib + Luminespib; first compound 8 µM) |
| --- | --- | --- | --- | --- | --- | --- | --- | --- | --- | --- | --- | --- | --- | --- | --- | --- | --- | --- | --- | --- |
| NCI-H520 | 0.917 | 0.938 | 0.988 | 0.896 | 0.987 | 0.702 | 0.554 | 0.768 | 0.692 | 0.74 | 0.243 | 0.242 | 0.177 | 0.269 | 0.188 | 0.211 | 0.209 | 0.236 | 0.215 | 0.241 |
| NCI-H1355 | 0.902 | 0.882 | 0.838 | 0.853 | 0.787 | 0.47 | 0.417 | 0.392 | 0.39 | 0.406 | 0.455 | 0.349 | 0.287 | 0.366 | 0.361 | 0.751 | 0.721 | 0.772 | 0.616 | 0.687 |
| NCI-H1563 | 0.896 | 0.88 | 1.01 | 0.889 | 1.02 |  |  |  |  |  |  |  |  |  |  | 0.535 | 0.515 | 0.549 | 0.505 | 0.505 |
| NCI-H1651 | 0.922 | 0.877 | 1.04 | 0.81 | 1.09 | 0.813 | 0.822 | 0.81 | 0.815 | 0.84 | 0.523 | 0.547 | 0.502 | 0.565 | 0.519 | 0.883 | 0.902 | 0.979 | 0.73 | 0.726 |
| HCC-44 | 0.787 | 0.771 | 0.717 | 0.799 | 0.818 | 1.11 | 1.05 | 1.05 | 1.04 | 0.976 | 0.956 | 0.981 | 0.992 | 1.08 | 1.07 | 1.02 | 1.07 | 1.2 | 0.689 | 0.527 |
| NCI-H1437 | 0.972 | 0.901 | 1.06 | 0.961 | 0.987 | 0.462 | 0.485 | 0.493 | 0.535 | 0.536 | 0.305 | 0.262 | 0.36 | 0.335 | 0.284 | 1.16 | 1.26 | 1.2 | 1.13 | 0.908 |
| 201T | 1.03 | 0.996 | 0.994 | 1.07 | 0.984 | 0.724 | 0.721 | 0.737 | 0.698 | 0.657 | 0.37 | 0.35 | 0.355 | 0.318 | 0.325 | 1.1 | 1.22 | 1.24 | 1.17 | 1.18 |
| LCLC-103H | 1.05 | 0.973 | 0.908 | 0.978 | 0.947 | 0.703 | 0.666 | 0.65 | 0.612 | 0.71 | 0.552 | 0.513 | 0.524 | 0.523 | 0.448 | 0.851 | 0.862 | 0.959 | 1.04 | 0.956 |
| NCI-H1915 | 0.996 | 1.09 | 1.07 | 1.03 | 1.12 | 0.295 | 0.282 | 0.303 | 0.303 | 0.335 | 0.558 | 0.532 | 0.54 | 0.547 | 0.452 | 0.711 | 0.762 | 0.83 | 0.578 | 0.503 |
| NCI-H2085 | 0.899 | 0.841 | 0.992 | 0.931 | 0.962 | 0.551 | 0.549 | 0.594 | 0.621 | 0.539 | 0.481 | 0.489 | 0.493 |  | 0.552 | 0.418 | 0.48 | 0.486 | 0.403 | 0.352 |
| NCI-H2228 | 0.643 | 0.952 | 0.606 | 0.622 | 0.758 | 0.368 | 0.42 | 0.484 | 0.417 | 0.585 | 0.885 | 0.762 | 0.981 | 1.03 | 0.547 | 0.131 | 0.146 | 0.118 | 0.144 | 0.148 |
| EKVX | 0.946 | 0.974 | 0.907 | 0.871 | 0.875 |  | 0.392 | 0.273 | 0.273 | 0.315 | 0.458 | 0.361 | 0.341 | 0.429 | 0.4 | 0.85 | 0.877 | 0.975 | 0.816 | 0.804 |
| COR-L23 | 0.77 | 0.672 | 0.689 | 0.756 | 0.819 | 0.525 | 0.532 | 0.658 | 0.58 | 0.67 | 0.284 | 0.307 | 0.32 | 0.394 | 0.307 | 0.749 | 0.738 | 0.676 | 0.511 | 0.519 |
| SK-MES-1 | 0.851 | 0.956 | 0.802 | 0.827 | 0.837 | 0.574 | 0.504 | 0.553 | 0.558 | 0.545 | 0.339 | 0.345 | 0.323 | 0.296 | 0.287 | 0.782 | 0.84 | 0.762 | 0.652 | 0.549 |
| A549 | 0.658 | 0.673 | 0.73 | 0.734 | 0.69 |  |  |  |  |  |  |  |  |  |  |  |  |  |  |  |
| NCI-H650 | 1.1 | 1.14 | 1.14 | 1.04 | 1.17 | 0.891 | 0.91 | 0.846 | 0.981 | 1.05 | 0.365 | 0.341 | 0.331 | 0.438 | 0.352 |  | 0.844 | 0.843 | 0.804 | 0.658 |
| NCI-H2087 | 1.02 | 1.07 | 1.05 | 1 | 0.995 | 0.199 | 0.183 | 0.166 | 0.172 | 0.213 | 0.263 | 0.192 | 0.292 | 0.259 | 0.297 | 0.158 | 0.15 | 0.172 | 0.233 | 0.17 |
| EBC-1 | 0.838 | 0.891 | 0.876 | 0.789 | 0.891 |  |  |  |  |  |  |  |  |  |  |  |  |  |  |  |
